# Test results: article PMC11161644, “An effective and rapidly degradable disinfectant from disinfection byproducts” (Nature Communications, 2024)
# Assay: UPLC/ESI-tqMS time profile of 2,6-DCQ and its degradation products in simulated seawater (pH 8.2, darkness); OH-DCQ formation
# Conditions: for Concentration: 2,6-DCQ degradation / OH-DCQ formation; for Peak area: 2,6-DCQ degradation
# Experimental: A Waters UPLC system coupled with ESI-tqMS was used to characterize the degradation products of 2,6-DCQ. The UPLC separation was performed using an HSS T3 column (100 × 2.1 mm, 1.8 μm particle size, Waters) with a column temperature of 35 °C. A gradient eluent of methanol–water was applied at a flow rate of 0.4 mL min^−1. The gradient program was set as follows: methanol/water (v/v) ratio changed linearly from 5/95 to 90/10 in the first 8 min and then returned to 5/95 during 8.0‒8.1 min, which was held for 2.9 min for re-equilibration. The ESI-tqMS was set as follows: ESI negative mode, capillary voltage 2.8 kV, cone voltage 10–50 V (depending on analytes), cone gas flow 50 L h^−1, source temperature 120 °C, desolvation temperature 400 °C, desolvation gas flow 800 L h^−1, collision energy 15–50 eV (depending on analytes), collision gas (argon) flow 0.25 mL min^−1, and mass resolution 15 (1-unit resolution).
# The degradation of 2,6-DCQ in seawater was simulated by adding 10 mg L^−1 2,6-DCQ to 50 mL ultrapure water, which was adjusted to pH 8.2 with 5 mM sodium carbonate (to simulate the alkalinity in seawater and also to be compatible with the subsequent UPLC/ESI-tqMS analysis). The sample was kept in darkness for 0–24 h, during which the pH of the sample was maintained at 8.1 ± 0.1. At a designated reaction time, 7.5 μL of the sample was injected into the UPLC system. For a nonhalogenated degradation product, the selected ion recording (SIR) mode with a dwell time of 0.05 s was adopted to obtain the retention time. For halogenated degradation products, the multiple reaction monitoring mode with a dwell time of 0.05 s was used to obtain the retention time and the isotopic abundance ratio. To investigate the time-dependent profile of 2,6-DCQ and its degradation products, the peak area of each compound was determined using the SIR mode in the UPLC/ESI-tqMS analysis.
# The second aliquot was subjected to analysis of total organic halogen to quantify the collected OH-DCQ. The determination of total organic halogen was based on Standard Method 5320B[52], with modifications of using off-line ion chromatography for halide detection. Briefly, the aliquot was dissolved in 100 mL ultrapure water and acidified to pH 2 with concentrated nitric acid[52] prior to adsorption onto pre-packed activated carbon columns (Mitsubishi). A three-channel adsorption module (TXA03C, Mitsubishi Chemical Analytech) was used for adsorption. An AQF-100 automatic quick furnace (Mitsubishi Chemical Analytech) was used for pyrolysis. During the pyrolysis process, the chlorine atoms in OH-DCQ were converted to chloride. The chloride ion concentration was determined using an ICS-3000 ion chromatography system (Dionex). 2,6-DCQ was used as a standard compound for measuring total organic halogen to determine the recovery of the analysis. The total organic halogen analysis was conducted in duplicate.
structure (smiles),measurement,setting,value
"O=C1C=C(Cl)C(=O)C(Cl)=C1O [OH-DCQ, 3-hydroxyl-2,6-dichloro-1,4-benzoquinone]",Degradation time at which concentration reached its maximum,"10 mg L−1, pH 8.2",5.5 h
same,Concentration,degradation time 0 h,388.2 ng/mL
same,Concentration,degradation time 0.25 h,1568 ng/mL
same,Concentration,degradation time 0.5 h,2136 ng/mL
same,Concentration,degradation time 0.75 h,2523 ng/mL
same,Concentration,degradation time 1 h,2564 ng/mL
same,Concentration,degradation time 1.25 h,2851 ng/mL
same,Concentration,degradation time 1.5 h,2913 ng/mL
same,Concentration,degradation time 1.75 h,3134 ng/mL
same,Concentration,degradation time 2 h,3157 ng/mL
same,Concentration,degradation time 2.25 h,3402 ng/mL
same,Concentration,degradation time 2.5 h,3558 ng/mL
same,Concentration,degradation time 2.75 h,3742 ng/mL
same,Concentration,degradation time 3 h,3837 ng/mL
same,Concentration,degradation time 3.25 h,4027 ng/mL
same,Concentration,degradation time 3.5 h,4055 ng/mL
same,Concentration,degradation time 3.75 h,4030 ng/mL
same,Concentration,degradation time 4 h,4244 ng/mL
same,Concentration,degradation time 4.5 h,4217 ng/mL
same,Concentration,degradation time 5 h,4099.6 ng/mL
same,Concentration,degradation time 5.5 h,4364 ng/mL
same,Concentration,degradation time 6 h,4268 ng/mL
same,Concentration,degradation time 8 h,4192.4 ng/mL
same,Concentration,degradation time 10 h,3830 ng/mL
same,Concentration,degradation time 12 h,3886 ng/mL
same,Concentration,degradation time 14 h,3910 ng/mL
same,Concentration,degradation time 16 h,3929.8 ng/mL
same,Concentration,degradation time 18 h,3711 ng/mL
same,Concentration,degradation time 20 h,3724 ng/mL
same,Concentration,degradation time 24 h,3646 ng/mL
same,Peak area,"pH 8.2, darkness, 0 h",2432
same,Peak area,"pH 8.2, darkness, 0.25 h",9916
same,Peak area,"pH 8.2, darkness, 0.5 h",13509
same,Peak area,"pH 8.2, darkness, 0.75 h",15961
same,Peak area,"pH 8.2, darkness, 1 h",16217
same,Peak area,"pH 8.2, darkness, 1.25 h",18034
same,Peak area,"pH 8.2, darkness, 1.5 h",18424
same,Peak area,"pH 8.2, darkness, 1.75 h",19823
same,Peak area,"pH 8.2, darkness, 2 h",19969
same,Peak area,"pH 8.2, darkness, 2.25 h",21520
same,Peak area,"pH 8.2, darkness, 2.5 h",22505
same,Peak area,"pH 8.2, darkness, 2.75 h",23670
same,Peak area,"pH 8.2, darkness, 3 h",24273
same,Peak area,"pH 8.2, darkness, 3.25 h",25472
same,Peak area,"pH 8.2, darkness, 3.5 h",25650
same,Peak area,"pH 8.2, darkness, 3.75 h",25488
same,Peak area,"pH 8.2, darkness, 4 h",26847
same,Peak area,"pH 8.2, darkness, 4.5 h",26676
same,Peak area,"pH 8.2, darkness, 5 h",25931
same,Peak area,"pH 8.2, darkness, 5.5 h",27605
same,Peak area,"pH 8.2, darkness, 6 h",26995
same,Peak area,"pH 8.2, darkness, 8 h",26518
same,Peak area,"pH 8.2, darkness, 10 h",24223
same,Peak area,"pH 8.2, darkness, 12 h",24578
same,Peak area,"pH 8.2, darkness, 14 h",24730
same,Peak area,"pH 8.2, darkness, 16 h",24857
same,Peak area,"pH 8.2, darkness, 18 h",23474
same,Peak area,"pH 8.2, darkness, 20 h",23553
same,Peak area,"pH 8.2, darkness, 24 h",23064
same,"Maximum concentration as share of initial molar concentration of 2,6-DCQ","pH 8.2, darkness",41%
